Reference: PubChem BioAssay AID330 (DTP/NCI, 2004)
Inconclusive results and toxic doses are left out. How the source made its calls: active means survival T/C of 150% or more; inactive means T/C below 125% in these data.

Tested on: P388 leukemia ip, CD2F1 mice, survival T/C
Test: NCI In Vivo Anticancer Drug Screen. Data for tumor model P388 Leukemia (intraperitoneal) in CD2F1 (CDF1) mice
Conditions: endpoint: median survival time, higher = longer survival
Outline: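 Mice carrying the transplanted tumor received test compound or vehicle. Survival was recorded in each group, and the value is the treated-group measurement divided by that of the vehicle-treated control group.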

[1] = dose: 12.5 mg/kg/injection, schedule: Q01DX009 (ip), vehicle: saline with Tween-80
[2] = dose: 25.0 mg/kg/injection, schedule: Q01DX009 (ip), vehicle: saline with Tween-80
[3] = dose: 50.0 mg/kg/injection, schedule: Q01DX009 (ip), vehicle: saline with Tween-80
[4] = dose: 60.0 mg/kg/injection, schedule: Q01DX005 (ip), vehicle: saline with Tween-80
[5] = dose: 120.0 mg/kg/injection, schedule: Q01DX005 (ip), vehicle: saline with Tween-80
[6] = dose: 100.0 mg/kg/injection, schedule: Q04DX003 (ip), vehicle: saline with Tween-80
[7] = dose: 400.0 mg/kg/injection, schedule: Q04DX003 (ip), vehicle: saline with Tween-80
[8] = dose: 50.0 mg/kg/injection, schedule: Q01DX005 (ip), vehicle: saline
[9] = dose: 100.0 mg/kg/injection, schedule: Q01DX005 (ip), vehicle: saline
[10] = dose: 200.0 mg/kg/injection, schedule: Q01DX005 (ip), vehicle: saline
[11] = dose: 240.0 mg/kg/injection, schedule: Q01DX005 (ip), vehicle: saline with Tween-80
[12] = dose: 100.0 mg/kg/injection, schedule: Q01DX009 (ip), vehicle: saline with Tween-80
[13] = dose: 200.0 mg/kg/injection, schedule: Q01DX009 (ip), vehicle: saline with Tween-80
[14] = dose: 50.0 mg/kg/injection, schedule: Q01DX009 (ip), vehicle: Klucel (hydroxypropylcellulose) (HPC)
[15] = dose: 100.0 mg/kg/injection, schedule: Q01DX009 (ip), vehicle: Klucel (hydroxypropylcellulose) (HPC)
[16] = dose: 200.0 mg/kg/injection, schedule: Q01DX009 (ip), vehicle: Klucel (hydroxypropylcellulose) (HPC)

Measured: T/C

O=[N+]([O-])c1c(Nc2ccccc2)nc(-c2ccccc2)nc1Nc1ccccc1
inactive: dose: 100.0 mg/kg/injection, schedule: Q04DX003 (ip), vehicle: saline 90 % of control | dose: 200.0 mg/kg/injection, schedule: Q04DX003 (ip), vehicle: saline 92 % of control | dose: 400.0 mg/kg/injection, schedule: Q04DX003 (ip), vehicle: saline 90 % of control

Cc1nc2nc[nH]n2c1N=Nc1ccccc1
inactive: dose: 60.0 mg/kg/injection, schedule: Q01DX005 (ip), vehicle: Klucel (hydroxypropylcellulose) (HPC) 98 % of control | dose: 120.0 mg/kg/injection, schedule: Q01DX005 (ip), vehicle: Klucel (hydroxypropylcellulose) (HPC) 95 % of control | dose: 240.0 mg/kg/injection, schedule: Q01DX005 (ip), vehicle: Klucel (hydroxypropylcellulose) (HPC) 107 % of control

c1ccc(-c2nnn(-c3ccccc3)n2)cc1
inactive: [1] 91 % of control | [2] 91 % of control | [3] 91 % of control

Cc1cccc(OC(=O)Nc2ccc(C(=O)O)c(O)c2)c1
inactive: [4] 106 % of control | [5] 90 % of control

Nc1nc(N)c(N=O)c(Nc2ccc(Br)cc2)n1
inactive: [6] 91 % of control | [7] 95 % of control

CCCCCCCCCCN1COC2Cc3ccccc3CC21 (stereo not drawn)
inactive: [8] 99 % of control | [9] 100 % of control | [10] 100 % of control

Cc1cc2nc(CC(=O)c3ccccc3)c(=O)[nH]c2cc1C
inactive: [4] 90 % of control | [5] 90 % of control | [11] 87 % of control

O=C1c2cccc3cccc(c23)C(=O)N1CCc1ccccn1
inactive: dose: 50.0 mg/kg/injection, schedule: Q01DX005 (ip), vehicle: saline with Tween-80 107 % of control | dose: 100.0 mg/kg/injection, schedule: Q01DX005 (ip), vehicle: saline with Tween-80 98 % of control

CCn1c(O)c(N=NC(=N)SCC(C)C)c2ccccc21
inactive: dose: 6.25 mg/kg/injection, schedule: Q01DX009 (ip), vehicle: suspension in saline 97 % of control | dose: 12.5 mg/kg/injection, schedule: Q01DX009 (ip), vehicle: suspension in saline 94 % of control

CC(C)(C)C1CCC(=O)C2(CCCC2)C1 (stereo not drawn)
inactive: [3] 100 % of control | [12] 114 % of control | [13] 122 % of control

C#CC(=O)O
inactive: dose: 6.25 mg/kg/injection, schedule: Q01DX009 (ip), vehicle: saline with Tween-80 111 % of control | [1] 95 % of control | [2] 92 % of control

Cc1ccc(C(=O)NNC(=O)Nc2cccc(Cl)c2C)cc1
inactive: [14] 92 % of control | [15] 89 % of control | [16] 93 % of control

NC1=NCCCN1
inactive: dose: 3.0 mg/kg/injection, schedule: Q01DX009 (ip), vehicle: saline 95 % of control | dose: 6.0 mg/kg/injection, schedule: Q01DX009 (ip), vehicle: saline 104 % of control | dose: 12.0 mg/kg/injection, schedule: Q01DX009 (ip), vehicle: saline 90 % of control

Clc1ccc(N=Cc2ccc(C=Nc3ccc(Cl)c(Cl)c3)cc2)cc1Cl
inactive: [2] 103 % of control | [3] 90 % of control | [12] 88 % of control | [13] 94 % of control

O=C1OC(Cl)C(c2ccccc2)=C1c1ccccc1 (stereo not drawn)
inactive: dose: 100.0 mg/kg/injection, schedule: Q04DX002 (ip), vehicle: saline 96 % of control | dose: 200.0 mg/kg/injection, schedule: Q04DX002 (ip), vehicle: saline 98 % of control | dose: 400.0 mg/kg/injection, schedule: Q04DX002 (ip), vehicle: saline 105 % of control

O=C(NO)c1ccccc1
inactive: dose: 25.0 mg/kg/injection, schedule: Q01DX009 (ip), vehicle: Klucel (hydroxypropylcellulose) (HPC) 98 % of control | dose: 50.0 mg/kg/injection, schedule: Q01DX001 (ip), vehicle: saline 102 % of control | [14] 98 % of control | [3] 103 % of control | dose: 50.0 mg/kg/injection, schedule: Q04DX003 (ip), vehicle: saline with Tween-80 106 % of control | dose: 100.0 mg/kg/injection, schedule: Q01DX001 (ip), vehicle: saline 102 % of control | [15] 107 % of control | [6] 102 % of control | [16] 116 % of control | [13] 103 % of control | dose: 200.0 mg/kg/injection, schedule: Q04DX003 (ip), vehicle: saline with Tween-80 102 % of control | dose: 400.0 mg/kg/injection, schedule: Q01DX009 (ip), vehicle: Klucel (hydroxypropylcellulose) (HPC) 114 % of control | [7] 109 % of control

COC(=O)C1C2COc3ccccc3C2=NC1c1ccc([N+](=O)[O-])cc1 (stereo not drawn)
inactive: dose: 25.0 mg/kg/injection, schedule: Q01DX001 (ip), vehicle: Klucel (hydroxypropylcellulose) (HPC) 91 % of control | dose: 50.0 mg/kg/injection, schedule: Q01DX001 (ip), vehicle: Klucel (hydroxypropylcellulose) (HPC) 96 % of control | dose: 100.0 mg/kg/injection, schedule: Q01DX001 (ip), vehicle: Klucel (hydroxypropylcellulose) (HPC) 95 % of control

C1CNCCNCCNCCN1
inactive: dose: 12.5 mg/kg/injection, schedule: Q01DX009 (ip), vehicle: water 101 % of control | dose: 25.0 mg/kg/injection, schedule: Q01DX009 (ip), vehicle: water 96 % of control | dose: 50.0 mg/kg/injection, schedule: Q01DX009 (ip), vehicle: water 100 % of control | dose: 100.0 mg/kg/injection, schedule: Q01DX009 (ip), vehicle: water 101 % of control

CC1CCC2(CC1C)C(=O)NC(=O)NC2=O (stereo not drawn)
inactive: dose: 12.5 mg/kg/injection, schedule: Q04DX003 (ip), vehicle: Klucel (hydroxypropylcellulose) (HPC) 100 % of control | dose: 25.0 mg/kg/injection, schedule: Q04DX003 (ip), vehicle: Klucel (hydroxypropylcellulose) (HPC) 97 % of control | dose: 50.0 mg/kg/injection, schedule: Q04DX003 (ip), vehicle: Klucel (hydroxypropylcellulose) (HPC) 105 % of control | dose: 100.0 mg/kg/injection, schedule: Q04DX003 (ip), vehicle: Klucel (hydroxypropylcellulose) (HPC) 100 % of control

N#CC1CCCC[N-]1.[NH-]CC[N-]CC[NH-].[Pt+4] (stereo not drawn)
inactive: dose: 6.25 mg/kg/injection, schedule: Q01DX009 (ip), vehicle: saline 93 % of control | dose: 12.5 mg/kg/injection, schedule: Q01DX009 (ip), vehicle: saline 97 % of control | dose: 25.0 mg/kg/injection, schedule: Q01DX009 (ip), vehicle: saline 100 % of control | dose: 50.0 mg/kg/injection, schedule: Q01DX009 (ip), vehicle: saline 97 % of control | dose: 100.0 mg/kg/injection, schedule: Q01DX009 (ip), vehicle: saline 89 % of control

CC(OP(=O)(O)O)C(N)C(=O)O (stereo not drawn)
inactive: [8] 97 % of control | [9] 93 % of control | [10] 98 % of control

O=C(O)c1ccc2ncc(-c3ccccc3)nc2c1
inactive: dose: 50.0 mg/kg/injection, schedule: Q01DX005 (ip), vehicle: Klucel (hydroxypropylcellulose) (HPC) 100 % of control | dose: 100.0 mg/kg/injection, schedule: Q01DX005 (ip), vehicle: Klucel (hydroxypropylcellulose) (HPC) 100 % of control | dose: 200.0 mg/kg/injection, schedule: Q01DX005 (ip), vehicle: Klucel (hydroxypropylcellulose) (HPC) 95 % of control

CC(=O)OC1CCC2C3CCC4CC(=O)CCC4(C)C3CCC12C (stereo not drawn)
inactive: [2] 91 % of control | [3] 97 % of control | [12] 97 % of control | [13] 100 % of control

CN1C(=S)C(=N)OC1c1ccc(Cl)cc1Cl (stereo not drawn)
inactive: dose: 60.0 mg/kg/injection, schedule: Q01DX005 (ip), vehicle: Klucel + Tween-80 102 % of control | dose: 120.0 mg/kg/injection, schedule: Q01DX005 (ip), vehicle: Klucel + Tween-80 94 % of control | dose: 240.0 mg/kg/injection, schedule: Q01DX005 (ip), vehicle: Klucel + Tween-80 96 % of control

COC(=O)C1=C(C(=O)OC)CC(n2nnc(C(=O)OC)c2C(=O)OC)=CC1
inactive: [4] 92 % of control | [5] 101 % of control | [11] 99 % of control

CCCC(C)C1(CC(C)O)C(=O)NC(=O)NC1=O (stereo not drawn)
inactive: [14] 104 % of control | [15] 104 % of control | [16] 100 % of control

CCCCCCC1NC1Cc1ccccc1 (stereo not drawn)
inactive: dose: 4.5 mg/kg/injection, schedule: Q01DX009 (ip), vehicle: saline with Tween-80 115 % of control | dose: 9.0 mg/kg/injection, schedule: Q01DX009 (ip), vehicle: saline with Tween-80 111 % of control | dose: 18.0 mg/kg/injection, schedule: Q01DX009 (ip), vehicle: saline with Tween-80 110 % of control
